Series [1] deals with Herpes simplex type 1 virus (HFEM strain). The series is described as follows: Plaque reduction test in Vero cells infected with Herpes simplex type 1 virus. It counts as cell-based. On the procedure:
(§1) Vero (African Green Monkey Kidney) cells were grown to confluence in 6 well multidishes, each well being 3.5 cm in diameter. The cells were incubated with Herpes simplex type 1 virus (HFEM strain) and overlaid with 0.5 mL of 0.9% agarose (w/v) in maintenance medium containing the test compound at a range of concentrations from 3 µg/mL in half-log dilution steps. The virus infected cultures were then incubated at 37 °C for 6 days before fixing in 4% formaldehyde solution and staining with carbolfuchsin. The dishes were then examined to find what concentration of test compound causing a 50% reduction in the number of virus plaques formed (PDD50 value) and the minimum concentration of test compound which killed the cell monolayer, leaving a clear zone devoid of cells and virus plaques (MTD).
Background: Plaques are areas of infected cells; plaque reduction assays count them against a control.

A short description of series [2]: Minimum concentration killing the Vero cell monolayer, read in the plaque reduction test. The settings on record: african green monkey; minimum concentration which killed the cell monolayer; virus-infected Vero cells, 6 days at 37°C; read-out: MTD. It is filed as cell-based, African Green Monkey. The protocol: as §1
Setting [3] is: Human alphaherpesvirus 1, Vero, 144 h, read-out: PDD50, concentration causing a 50% reduction in the number of virus plaques, 6 days at 37°C.
Where [4] appears, read: Human alphaherpesvirus 1, Vero, 144 h, read-out: PDD50, same PDD50 values given in µM, 6 days at 37°C.
The mark [5] stands for this setting: Human alphaherpesvirus 1, 144 h, concentration causing a 50% reduction in the number of virus plaques, 6 days at 37°C, read-out: PDD50 (the source's name).
Setting [6] is: Human alphaherpesvirus 1, 144 h, same PDD50 values given in µM, 6 days at 37°C, read-out: PDD50 (the source's name).

Counter-ions that a name gives are not always drawn. Like-named read-outs stand apart in the source and are kept apart here.

With `CSCC[C@H](N)C(=O)OC[C@H]1O[C@@H](n2cc(/C=C/Br)c(=O)[nH]c2=O)C[C@@H]1OC(=O)[C@@H](N)CCSC` [Example 32, E-5-(2-Bromovinyl)-3',5'-di-L-methionyl-2'-deoxyuridine bis trifluoroacetate], the IC50 stood at 0.26 µg/mL in series [1] (setting [3]) and 0.32 µM in series [1] (setting [4]). In addition, the MCC at 144 h in series [2] is above 100 µg/mL.

As for `CC(C)C[C@@H](NC(=O)OC(C)(C)C)C(=O)OC[C@H]1O[C@@H](n2cc(/C=C/Br)c(=O)[nH]c2=O)C[C@@H]1OC(=O)[C@@H](CC(C)C)NC(=O)OC(C)(C)C` [Example 19, E-5-(2-Bromovinyl)-3',5'-di-(t-butoxy-carbonyl-D-leucyl)-2'-deoxyuridine], the IC50 in series [1] (setting [5]) is above 100 µg/mL. In addition, the MCC at 144 h in series [2] is above 100 µg/mL.

For the compound `CC(C)(C)OC(=O)N[C@@H](Cc1ccccc1)C(=O)OC[C@H]1O[C@@H](n2cc(/C=C/Br)c(=O)[nH]c2=O)C[C@@H]1OC(=O)[C@H](Cc1ccccc1)NC(=O)OC(C)(C)C` [Example 1, E-5-(2-Bromovinyl)-3',5'-di-O-(tertbutoxycarbonylphenylalanyl)-2'-deoxyuridine], the values for the IC50 in series [1] (setting [5]) and in series [1] (setting [6]) were 1.1 µg/mL and 1.33 µM, respectively. In addition, in series [2], the MCC at 144 h is above 100 µg/mL.

Regarding `NCC(=O)OC[C@H]1O[C@@H](n2cc(/C=C/Br)c(=O)[nH]c2=O)C[C@@H]1O` [Example 13, E-5-(2-Bromovinyl)-5'-glycyl-2'-deoxyuridine trifluoroacetate], the values for the IC50 in series [1] (setting [3]) and in series [1] (setting [4]) were 0.94 µg/mL and 1.87 µM, respectively. Moreover, the MCC at 144 h in series [2] is above 100 µg/mL.

Turning to `N[C@H](Cc1ccccc1)C(=O)OC[C@H]1O[C@@H](n2cc(/C=C/Br)c(=O)[nH]c2=O)C[C@@H]1OC(=O)[C@H](N)Cc1ccccc1` [Example 31, E-5-(2-Bromovinyl)-3',5'-di-D-phenylalanyl--2'-deoxyuridine bis trifluoroacetate], the IC50 in series [1] (setting [3]) was 0.55 µg/mL; in series [1] (setting [4]), 0.64 µM. Besides, the MCC at 144 h in series [2] was above 100 µg/mL.

Turning to `CC(C)(C)OC(=O)NCC(=O)OC[C@H]1O[C@@H](n2cc(/C=C/Br)c(=O)[nH]c2=O)C[C@@H]1O` [Example 6, E-5-(2-Bromovinyl)-5'-O-(tert.-butoxycarbonylglycyl)-2'-deoxyuridine], the results for the IC50 in series [1] (setting [5]) and in series [1] (setting [6]) were 0.54 µg/mL and 1.1 µM, respectively. The MCC at 144 h in series [2] is above 100 µg/mL.

Turning to `CC(C)(C)OC(=O)N1CCC[C@H]1C(=O)OC[C@H]1O[C@@H](n2cc(/C=C/Br)c(=O)[nH]c2=O)C[C@@H]1O` [Example 28], the IC50 stood at 2.12 µg/mL in series [1] (setting [5]) and 4 µM in series [1] (setting [6]). Besides, in series [2], the MCC at 144 h worked out at 100 µg/mL.

Consider `CC(C)(C)OC(=O)NCCCC[C@H](NC(=O)OC(C)(C)C)C(=O)OC[C@H]1O[C@@H](n2cc(/C=C/Br)c(=O)[nH]c2=O)C[C@@H]1OC(=O)[C@H](CCCCNC(=O)OC(C)(C)C)NC(=O)OC(C)(C)C` [Example 26, E-5-(2-Bromovinyl)-3',5'-bis-(Nβ,Nε-di-t-butoxycarbonyl-L-lysyl)-2'-deoxyuridine], for which the IC50 in series [1] (setting [5]) is 90 µg/mL; in series [1] (setting [6]) it was 91 µM. Further, the MCC at 144 h in series [2] was above 100 µg/mL.

On to `NC(Cc1ccccc1)C(=O)O[C@H]1C[C@H](n2cc(/C=C/Br)c(=O)[nH]c2=O)O[C@@H]1CO` (stereo partly drawn) [Example 8, E-5-(2-Bromovinyl)-3'-O-phenylalanyl-2'-deoxyuridine trifluoroacetate], for which the IC50 in series [1] (setting [3]) was found to be 0.45 µg/mL; in series [1] (setting [4]), 0.76 µM. The MCC at 144 h in series [2] was above 100 µg/mL.

On to `CC[C@H](C)[C@H](NC(=O)OC(C)(C)C)C(=O)OC[C@H]1O[C@@H](n2cc(/C=C/Br)c(=O)[nH]c2=O)C[C@@H]1OC(=O)[C@@H](NC(=O)OC(C)(C)C)[C@@H](C)CC` [Example 23, E-5-(2-Bromovinyl)-3',5'-di-(t-butoxy-carbonyl-L-isoleucyl)-2'-deoxyuridine], for which the IC50 in series [1] (setting [5]) was above 100 µg/mL. Further, the MCC at 144 h in series [2] is above 100 µg/mL.

As for `CC(C)(C)OC(=O)N1CCC[C@H]1C(=O)O[C@H]1C[C@H](n2cc(/C=C/Br)c(=O)[nH]c2=O)O[C@@H]1CO` [Example 29, E-5-(2-Bromovinyl)-3'-(t-butoxycarbonyl-L-prolyl)-2'-decxyuridine], the IC50 amounted to 0.64 µg/mL in series [1] (setting [5]) and 1.21 µM in series [1] (setting [6]). For the same compound, the MCC at 144 h in series [2] was determined as 100 µg/mL.

In the case of `CC(C)(C)OC(=O)N[C@@H](Cc1ccccc1)C(=O)O[C@H]1C[C@H](n2cc(/C=C/Br)c(=O)[nH]c2=O)O[C@@H]1CO` [Example 2, E-5-(2-bromovinyl)-3'-O-(tertbutoxycarbonylphenylalanyl)-2'-deoxyuridine], the IC50 turned out to be 0.16 µg/mL in series [1] (setting [5]) and 0.28 µM in series [1] (setting [6]). For the same compound, in series [2], the MCC at 144 h is above 100 µg/mL.

With `O=C(O[C@H]1C[C@H](n2cc(/C=C/Br)c(=O)[nH]c2=O)O[C@@H]1CO)[C@@H]1CCCN1` [Example 37, E-5-(2-Bromovinyl)-3'-L-prolyl-2'-deoxyuridine trifluoroacetate], the results for the IC50 in series [1] (setting [3]) and in series [1] (setting [4]) were 0.68 µg/mL and 1.25 µM, respectively. The MCC at 144 h in series [2] was above 100 µg/mL.

As to `NC(=O)CC[C@H](N)C(=O)OC[C@H]1O[C@@H](n2cc(/C=C/Br)c(=O)[nH]c2=O)C[C@@H]1OC(=O)[C@@H](N)CCC(N)=O` [Example 39, bis trifluoroacetate], the IC50 in series [1] (setting [3]) was 0.42 µg/mL; in series [1] (setting [4]), 0.51 µM. Further, the MCC at 144 h in series [2] is above 100 µg/mL.

As for `NC(Cc1ccc(F)cc1)C(=O)OC[C@H]1O[C@@H](n2cc(/C=C/Br)c(=O)[nH]c2=O)C[C@@H]1OC(=O)C(N)Cc1ccc(F)cc1` (mixture of isomers) [Example 15, E-5-(2-Bromovinyl)-3',5'-di-(p-fluoro-DL-phenylalanyl)-2'-deoxyuridine bis trifluoroacetate], the IC50 was found to be 0.8 µg/mL in series [1] (setting [5]) and 0.9 µM in series [1] (setting [6]). The MCC at 144 h in series [2] was above 100 µg/mL.

On to `CC(C)[C@H](N)C(=O)OC[C@H]1O[C@@H](n2cc(/C=C/Br)c(=O)[nH]c2=O)C[C@@H]1OC(=O)[C@@H](N)C(C)C` [Example 33, E-5-(2-Bromovinyl)-3',5'-di-L-valyl-2'-deoxyuridine bis trifluoroacetate], for which the values for the IC50 in series [1] (setting [3]) and in series [1] (setting [4]) were 0.24 µg/mL and 0.32 µM, respectively. The MCC at 144 h in series [2] was above 100 µg/mL.

In the case of `CC(C)[C@H](NC(=O)OC(C)(C)C)C(=O)OC[C@H]1O[C@@H](n2cc(/C=C/Br)c(=O)[nH]c2=O)C[C@@H]1OC(=O)[C@@H](NC(=O)OC(C)(C)C)C(C)C` [Example 22, E-5-(2-Bromovinyl)-3',5'-di-(t-butoxy-carbonyl-L-valyl)-2'-deoxyuridine], the IC50 in series [1] (setting [5]) was above 100 µg/mL. Further, in series [2], the MCC at 144 h was above 100 µg/mL.

Turning to `CC(C)C[C@H](NC(=O)OC(C)(C)C)C(=O)OC[C@H]1O[C@@H](n2cc(/C=C/Br)c(=O)[nH]c2=O)C[C@@H]1OC(=O)[C@H](CC(C)C)NC(=O)OC(C)(C)C` [Example 12, E-5-(2-Bromovinyl)-3',5'-di(t-butoxycarbonyl-L-leucyl)-2^1-deoxyuridine], the IC50 turned out to be 0.86 µg/mL in series [1] (setting [5]) and 1.13 µM in series [1] (setting [6]). Moreover, in series [2], the MCC at 144 h worked out at 100 µg/mL.

Take `CC(C)(C)OC(=O)NCC(=O)O[C@H]1C[C@H](n2cc(/C=C/Br)c(=O)[nH]c2=O)O[C@@H]1CO` [Example 5, E-5-(2-Bromovinyl)-3'-O-(tert.butoxycarbonylglycyl)-2'-deoxyuridine]: the results for the IC50 in series [1] (setting [5]) and in series [1] (setting [6]) were 0.48 µg/mL and 0.98 µM, respectively. In series [2], the MCC at 144 h was above 100 µg/mL.

`CC(C)(C)OC(=O)N1CCC[C@H]1C(=O)OC[C@H]1O[C@@H](n2cc(/C=C/Br)c(=O)[nH]c2=O)C[C@@H]1OC(=O)[C@@H]1CCCN1C(=O)OC(C)(C)C` [Example 27, E-5-(2-Brcmovinyl)-3',5'-di-(t-butoxycarbonyl-L-prolyl)-2'-deoxyuridine]: the figures for the IC50 in series [1] (setting [5]) and in series [1] (setting [6]) were 3.51 µg/mL and 4.83 µM, respectively. Moreover, the MCC at 144 h in series [2] is 100 µg/mL.

Take `C[C@H](NC(=O)OC(C)(C)C)C(=O)OC[C@H]1O[C@@H](n2cc(/C=C/Br)c(=O)[nH]c2=O)C[C@@H]1OC(=O)[C@H](C)NC(=O)OC(C)(C)C` [Example 24, E-5-(2-Bromovinyl)-3',5'-di-(t-butoxy-carbonyl-L-alanyl)-2'-deoxyuridine]: the IC50 was 0.62 µg/mL in series [1] (setting [5]) and 0.92 µM in series [1] (setting [6]). Moreover, the MCC at 144 h in series [2] was above 100 µg/mL.

Turning to `NC(Cc1ccccc1)C(=O)OC[C@H]1O[C@@H](n2cc(/C=C/Br)c(=O)[nH]c2=O)C[C@@H]1OC(=O)C(N)Cc1ccccc1` (stereo partly drawn) [Example 10], the IC50 in series [1] (setting [3]) is 0.19 µg/mL; in series [1] (setting [4]) it was 0.24 µM. The MCC at 144 h in series [2] was above 100 µg/mL.

Consider `CC(C)(C)OC(=O)NCC(=O)OC[C@H]1O[C@@H](n2cc(/C=C/Br)c(=O)[nH]c2=O)C[C@@H]1OC(=O)CNC(=O)OC(C)(C)C` [Example 4, E-5-(2-Bromovinyl)-3',5'-di-O-(tert.butoxycarbonylglycyl)-2'-deoxyurdine], for which the results for the IC50 in series [1] (setting [5]) and in series [1] (setting [6]) were 1.95 µg/mL and 3.01 µM, respectively. Moreover, in series [2], the MCC at 144 h was above 100 µg/mL.

As for `CC[C@H](C)[C@H](N)C(=O)OC[C@H]1O[C@@H](n2cc(/C=C/Br)c(=O)[nH]c2=O)C[C@@H]1OC(=O)[C@@H](N)[C@@H](C)CC` [Example 34, E-5-(2-Bromovinyl)-3',5'-di-L-isoleucyl-2'-deoxyuridine bis trifluoroacetate], the IC50 in series [1] (setting [3]) amounted to 0.4 µg/mL; in series [1] (setting [4]), 0.51 µM. Besides, the MCC at 144 h in series [2] is above 100 µg/mL.

The values above are taken from patent EP0080305A1, “Antiviral 2'-deoxyuridines, their preparation and use” (BEECHAM GROUP PLC, priority 1981, dated 1983).
